Source: PubChem BioAssay (NCI)
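Test compounds were applied to cells in 96-well plates for 48 hours at 5 doses. TGI denotes the concentration required for complete inhibition of growth.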

Legend:
Experiment in all cases: NCI-60 cell line screen, 48 h
[1] = tested on: SN12C renal
[2] = tested on: HOP-92 NSCLC
[3] = tested on: OVCAR-4 ovarian
[4] = tested on: T-47D breast
[5] = tested on: SF-268 CNS
[6] = tested on: SNB-19 CNS
[7] = tested on: LOX IMVI melanoma
[8] = tested on: MCF7 breast
[9] = tested on: RXF 393 renal
[10] = tested on: DU-145 prostate
[11] = tested on: SF-539 CNS
[12] = tested on: M14 melanoma
[13] = tested on: SK-OV-3 ovarian
[14] = tested on: K-562 leukemia
[15] = tested on: KM12 colon
[16] = tested on: NCI-H226 lung
[17] = tested on: UO-31 renal
[18] = tested on: U251 CNS
[19] = tested on: HL-60(TB) leukemia
[20] = tested on: HT29 colon
[21] = tested on: EKVX NSCLC
[22] = tested on: NCI/ADR-RES ovarian
[23] = tested on: SW-620 colon
[24] = tested on: ACHN renal
[25] = tested on: SR leukemia
[26] = tested on: SK-MEL-28 melanoma
[27] = tested on: 786-0 renal
[28] = tested on: SK-MEL-2 melanoma
[29] = tested on: MALME-3M melanoma
[30] = tested on: IGROV1 ovarian
[31] = tested on: RPMI-8226 leukemia
[32] = tested on: SK-MEL-5 melanoma
[33] = tested on: MDA-N
[34] = tested on: UACC-257 melanoma
[35] = tested on: HOP-62 NSCLC
[36] = tested on: A549 NSCLC
[37] = tested on: HCT-116 colon
[38] = tested on: NCI-H522 lung
[39] = tested on: OVCAR-8 ovarian
[40] = tested on: MDA-MB-231 breast
[41] = tested on: HS 578T breast
[42] = tested on: A498 renal
[43] = tested on: UACC-62 melanoma
[44] = tested on: MDA-MB-435
[45] = tested on: SNB-75 CNS
[46] = tested on: TK-10 renal
[47] = tested on: OVCAR-3 ovarian
[48] = tested on: CAKI-1 renal
[49] = tested on: NCI-H23 lung
[50] = tested on: BT-549 breast
[51] = tested on: NCI-H460 lung
[52] = tested on: CCRF-CEM leukemia
[53] = tested on: HCC-2998 colon
[54] = tested on: PC-3 prostate
[55] = tested on: MOLT-4 leukemia
[56] = tested on: HCT-15 colon
[57] = tested on: OVCAR-5 ovarian
[58] = tested on: COLO 205 colon
[59] = tested on: SF-295 CNS

What does the source list for `Clc1ccc(C2NN=C3c4ccccc4OCC32)cc1` (stereo unspecified)?
TGI [1]: 22.1 µM; TGI [2]: > 100 µM; TGI [3]: > 73.1 µM; TGI [4]: 54.3 µM; TGI [5]: > 81 µM; TGI [6]: > 100 µM; TGI [7]: 27.6 µM; TGI [8]: > 45.2 µM; TGI [9]: 41.3 µM; TGI [10]: > 95.4 µM; TGI [11]: 7.17 µM; TGI [12]: > 45.1 µM; TGI [13]: > 100 µM; TGI [14]: > 22.9 µM; TGI [15]: > 37.9 µM; TGI [16]: 14.2 µM; TGI [17]: 41.4 µM; TGI [18]: > 56.8 µM; TGI [19]: 11.9 µM; TGI [20]: 12.2 µM; TGI [21]: 27.2 µM; TGI [22]: 6.14 µM; TGI [23]: > 25.3 µM; TGI [24]: > 100 µM; TGI [25]: 5.67 µM; TGI [26]: > 85.6 µM; TGI [27]: 29.5 µM; TGI [28]: 15.5 µM; TGI [29]: 23.1 µM; TGI [30]: 22.3 µM; TGI [31]: 6.93 µM; TGI [32]: 20.4 µM; TGI [33]: 2.56 µM; TGI [34]: 87.4 µM; TGI [35]: > 93.5 µM; TGI [36]: > 100 µM; TGI [37]: > 36.4 µM; TGI [38]: 3.63 µM; TGI [39]: 55.2 µM; TGI [40]: 6.91 µM; TGI [41]: 14.6 µM; TGI [42]: 92.6 µM; TGI [43]: > 47.2 µM; TGI [44]: > 21.3 µM; TGI [45]: > 100 µM; TGI [46]: > 100 µM; TGI [47]: 29.6 µM; TGI [48]: > 100 µM; TGI [49]: 51 µM; TGI [50]: 79.3 µM; TGI [51]: 25.8 µM; TGI [52]: > 74.8 µM; TGI [53]: 13.5 µM; TGI [54]: 64.3 µM; TGI [55]: 26.9 µM; TGI [56]: 13.5 µM; TGI [57]: > 100 µM; TGI [58]: 12.4 µM

What does the source list for `O=S1C2=C(Cc3ccccc3)C(Cc3ccccc3)=C1CCc1cccc(c1)CC2`?
TGI [1]: 30.6 µM; TGI [2]: 26.4 µM; TGI [3]: 21.4 µM; TGI [4]: 44.8 µM; TGI [5]: 31.8 µM; TGI [6]: 28.1 µM; TGI [7]: 28.1 µM; TGI [8]: 25.7 µM; TGI [9]: 19.7 µM; TGI [10]: 30.3 µM; TGI [11]: 41 µM; TGI [12]: 29 µM; TGI [13]: 24.3 µM; TGI [14]: > 100 µM; TGI [15]: 26.7 µM; TGI [16]: 47.8 µM; TGI [17]: 25.8 µM; TGI [18]: 26.8 µM; TGI [19]: 59.8 µM; TGI [20]: 26 µM; TGI [21]: 26.3 µM; TGI [22]: 38.7 µM; TGI [23]: 77.9 µM; TGI [24]: 30.8 µM; TGI [25]: 90.2 µM; TGI [26]: 42.3 µM; TGI [27]: 28.9 µM; TGI [28]: 31.1 µM; TGI [29]: 32.5 µM; TGI [32]: 30 µM; TGI [33]: 30.6 µM; TGI [34]: 27.8 µM; TGI [36]: 36.3 µM; TGI [37]: 21.5 µM; TGI [38]: 27.6 µM; TGI [59]: 27.1 µM; TGI [39]: 34 µM; TGI [40]: 31.3 µM; TGI [41]: 48.8 µM; TGI [43]: 24.7 µM; TGI [44]: 27.5 µM; TGI [45]: 27.8 µM; TGI [46]: 33.7 µM; TGI [47]: 23.5 µM; TGI [48]: 28.7 µM; TGI [49]: 28.2 µM; TGI [50]: 27.2 µM; TGI [51]: 26.8 µM; TGI [52]: > 100 µM; TGI [53]: 27.5 µM; TGI [54]: 29.3 µM; TGI [55]: 63.7 µM; TGI [56]: 30.5 µM; TGI [57]: 35.5 µM; TGI [58]: 58.8 µM

Which results are given for `Nc1nc2c(c(=O)[nH]1)CN(c1ccc(S(N)(=O)=O)cc1)CN2`?
TGI [1]: > 100 µM; TGI [2]: > 100 µM; TGI [3]: > 100 µM; TGI [4]: > 100 µM; TGI [5]: > 100 µM; TGI [6]: > 100 µM; TGI [7]: > 100 µM; TGI [8]: > 100 µM; TGI [10]: > 100 µM; TGI [12]: > 100 µM; TGI [14]: > 100 µM; TGI [15]: > 100 µM; TGI [16]: > 100 µM; TGI [17]: > 100 µM; TGI [18]: > 100 µM; TGI [20]: > 100 µM; TGI [21]: > 100 µM; TGI [22]: > 100 µM; TGI [23]: > 100 µM; TGI [24]: > 100 µM; TGI [25]: > 100 µM; TGI [26]: > 100 µM; TGI [27]: > 100 µM; TGI [28]: > 100 µM; TGI [29]: > 100 µM; TGI [30]: > 100 µM; TGI [31]: > 100 µM; TGI [32]: > 100 µM; TGI [33]: > 100 µM; TGI [34]: > 100 µM; TGI [35]: > 100 µM; TGI [36]: > 100 µM; TGI [37]: > 100 µM; TGI [38]: > 100 µM; TGI [59]: > 100 µM; TGI [39]: > 100 µM; TGI [40]: > 100 µM; TGI [41]: > 100 µM; TGI [42]: > 100 µM; TGI [43]: > 100 µM; TGI [44]: > 100 µM; TGI [46]: > 100 µM; TGI [47]: > 100 µM; TGI [48]: > 100 µM; TGI [50]: > 100 µM; TGI [51]: > 100 µM; TGI [54]: > 100 µM; TGI [55]: > 100 µM; TGI [56]: > 100 µM; TGI [57]: > 100 µM; TGI [58]: > 100 µM

Which results are given for `C=C(C)C(=O)O[C@H]1[C@H]2[C@H](OC(=O)[C@H]2C)[C@H](O)[C@@H](C)[C@@H]2C=CC(=O)[C@]21C`?
TGI [1]: 4.96 µM; TGI [2]: 8.89 µM; TGI [3]: 19.9 µM; TGI [4]: 12.5 µM; TGI [5]: 12.6 µM; TGI [6]: 18.6 µM; TGI [7]: 7.74 µM; TGI [8]: 15.5 µM; TGI [9]: 4.13 µM; TGI [10]: 12.9 µM; TGI [11]: 16.5 µM; TGI [12]: 38.5 µM; TGI [13]: 18.3 µM; TGI [15]: 7.38 µM; TGI [16]: 39 µM; TGI [17]: 15.4 µM; TGI [18]: 12.1 µM; TGI [19]: 2.86 µM; TGI [20]: 10.7 µM; TGI [21]: 14.8 µM; TGI [22]: 9.61 µM; TGI [23]: 10.7 µM; TGI [24]: 12.7 µM; TGI [25]: 5.39 µM; TGI [26]: 5.85 µM; TGI [27]: 5.21 µM; TGI [28]: 18.4 µM; TGI [29]: 5.54 µM; TGI [30]: 7 µM; TGI [31]: 9.73 µM; TGI [32]: 20.2 µM; TGI [33]: 7.68 µM; TGI [34]: 7.73 µM; TGI [35]: 34.1 µM; TGI [36]: 12.5 µM; TGI [37]: 4.6 µM; TGI [38]: 2.68 µM; TGI [59]: 18.7 µM; TGI [39]: 4.07 µM; TGI [40]: 14 µM; TGI [41]: 32.5 µM; TGI [42]: 6.56 µM; TGI [43]: 3.84 µM; TGI [44]: 7.28 µM; TGI [46]: 8.09 µM; TGI [47]: 18.4 µM; TGI [48]: 5.66 µM; TGI [49]: 15 µM; TGI [50]: 15.5 µM; TGI [51]: 3.72 µM; TGI [52]: 7.53 µM; TGI [53]: 5.72 µM; TGI [54]: 18.5 µM; TGI [55]: 7.52 µM; TGI [56]: 6.38 µM; TGI [57]: 54 µM; TGI [58]: 9.97 µM
